Test [1] deals with hOB SFRP mRNA. The test can be described thus: Northern blot analysis of hOB SFRP mRNA expression. Format: cell-based, human. To be noted: for regulation of SFRP mRNA: SaOS-2 human osteosarcoma cells. From the text:
The hOB SFRP gene fragment was identified using RADE (rapid analysis of differential expression) technology as described by Shiue 1997 Drug Develop. Res. 41: 142–159, the whole of which is incorporated herein. Three hOB cell lines (hOB-03-C5, hOB-03-CE6 and hOB-01-C1), representing three distinct stages of differentiation (proliferative, mature and preosteocytic, respectively) were used to isolate and identify SFRP. The hOB cell lines were established and cultured as previously described (Bodine et al. 1996 J. Bone Miner. Res. 11: 806–819; Bodine et al. 1996 Endocrinology 137: 4592–4604; Bodine et al. 1997 J. Cell. Biochem. 65: 368–387). […] However, in contrast to osteosarcoma cells (Stein and Lian 1993 Endocrine Rev. 14: 424–442), the hOB cell lines were faithful to the proliferation/differentiation relationship at the nonpermissive temperature (>37° C.) when the T-antigen mutant is inactivated. The cell lines were seeded into 150 mm dishes at ˜40,000 cells/cm^2 with growth medium [D-MEM/F-12 containing 10% (v/v) heat-inactivated fetal bovine serum (FBS), 1% (v/v) Penicillin-Streptomycin and 2 mM GlutaMAX-1] and incubated overnight at 34° C. The next day, the medium was removed, the cells were rinsed with phosphate-buffered saline (PBS), 20 ml of serum-free medium was added to the dishes [phenol red-free D-MEM/F-12 (Gibco/BRL) containing 0.25% (w/v) bovine serum albumin (BSA, Pentex crystallized, Bayer), 1% (v/v) Penicillin-Streptomycin, 2 mM GlutaMAX-1, […] ascorbate-2-phosphate (Wako), and 10 nM menadione sodium bisulfite (vitamin K3)], and the dishes were incubated at 39° C. for 24 hr. The next day, the medium was removed and the cells were treated at 39° C. for an additional 24 hr with 20 ml of fresh serum-free medium containing either vehicle (Control), 8 nM human parathyroid hormone 1–34 (PTH), 100 nM prostaglandin E2 (PGE2) or 0.1 nM human transforming growth factor-β1 (TGF-β1). PTH, PGE2 and TGF-β1 are known osteogenic agents (Whitfield and Morley 1995 Trends Pharmaceut. Sci. 16:382–386; Jee and Ma 1997 Bone 21:297–304; Centrella et al. 1994 Endocrine Rev. 15:27–39). After the treatment period, the dishes were rinsed with PBS and total cellular RNA was isolated from the nontreated and treated cells using TRIzol according to the manufacturers instructions (GibcoBRL). RADE was then performed with the isolated RNA samples as above; the regulated gene fragments were identified, cloned and sequenced. These experiments identified a total of 82 differentially expressed genes. A BLAST (basic local alignment search tool) search of the public data bases was performed on the RADE-obtained gene fragments; one of the gene fragments was highly homologous to mouse SFRP-1. This gene fragment was identified during RADE using the following primer pair: 5′-[…]-3′ (HT11A)3′ end (reverse primer) and 5′-[…]-3′ (H-AP1) 5′ end (forward primer), which sequences are SEQ ID NO 11 and SEQ ID NO 12, respectively. The expression and regulation of the gene fragment having homology to mouse cDNA SFRP-1 was confirmed by Northern blot analysis.
In order to confirm the regulation of hOB SFRP gene expression by different osteogenic agents (i.e., the DNA fragment identified in Example 1, above), the hOB cell lines were treated with PTH, PGE2, and TGF-β1; RNA was then isolated for Northern hybridizations. The experiments were performed as follows. The hOB cell lines were seeded into 150 mm dishes and treated as described in Example 1, except that polyA+ RNA was isolated from total cellular RNA using Oligotex mRNA maxi kits as described by the manufacturer (Qiagen). Northern blot analysis was performed using either the excised RADE hOB SFRP gene fragment, the cloned hOB SFRP gene fragment or the cloned full-length hOB SFRP cDNA as a ^32P-labeled probe (as described in Bodine et al. 1996 J. Bone Miner. Res. 11: 806–819, which is incorporated herein). Each of these probes detected a 4.4–4.6 kb message in the hOB cells. […]

The subject of test [2] is hOB SFRP mRNA. Kind of test: TaqMan quantitative RT-PCR of hOB SFRP mRNA. Particulars: 24 hr. Format: cell-based, human. The method, then:
In a similar manner, the hOB-01-C1 cells were seeded into 100 mm dishes and treated for 24 hr with increasing concentrations of TGF-β1. Total RNA was then isolated from the cells, and hOB SFRP mRNA was measured by TaqMan quantitative RT-PCR. TGF-β1 suppressed SFRP gene expression by approximately 70% in a dose-dependent manner with an IC50 of about 4 pM.
In addition to the hOB cell lines from which SFRP was initially identified, additional in vitro human osteoblast models were examined for the presence of the gene. SaOS-2 human osteosarcoma osteoblast-like cells were obtained from the American Type-Culture Collection (ATCC) and were cultured at 37° C. in McCoy's 5A Modified medium containing 10% FBS, 1% (v/v) Penicillin-Streptomycin and 2 mM GlutaMAX-1. Likewise, explant cultures of normal human osteoblasts (hOBs) were established from cancellous bone chips as previously described (Bodine et al. 1996 J. Bone Miner. Res. 11: 806–819, which is incorporated herein by reference). The cells were then seeded into 150 mm dishes and treated as described in Examples 1 and 4, except that the cells were incubated at 37° C. instead of 39° C. PolyA+ RNA Northern blot analysis was performed using the cloned 1.1 kb hOB SRFP gene fragment as a ^32P-label). SaOS-2 cells expressed relatively low basal levels of SFRP mRNA which was not regulated by treatment with either PTH, PGE2 or TGF-β1 (FIG. 7). It was difficult to quantify expression of this gene in these cells, since the level of expression was low. In contrast, normal hOB cells expressed higher basal levels of SFRP message, and treatment of the cells with 100 nM PGE2 for 24 hr appeared to slightly up-regulate the steady-state levels of this mRNA (˜1.3-fold). […] Due to the low basal level expression in osteosarcoma cells, these cells may not be satisfactory in vitro models to study the regulation of the SFRP gene. Since the gene is expressed and regulated by PGE2 in cultures of normal human osteoblasts, the use of the hOB cell lines described in the present invention is validated for in vitro osteoblast models.
(In general: Real-time PCR tracks product formation cycle by cycle.)

pEC50, pIC50: −log10 of the molar value.

The pEC50 is the negative decadic logarithm of the EC50, by convention in mol/L. As to `CCCCC[C@H](O)/C=C/[C@H]1[C@H](O)CC(=O)[C@@H]1C/C=C\CCCC(=O)O` [PGE2, prostaglandin E2], the “regulation of SFRP mRNA” value with hOB SFRP mRNA [1] (24 hr, 37° C.) was “not regulated”. Moreover, in the test on hOB SFRP mRNA [1] (hOB-03-C5 cells, 100 nM, 2 to 24 hr), the “time course of hOB SFRP mRNA expression” value was “up-regulated hOB SFRP mRNA expression in a time-dependent manner”. Also, the “hOB SFRP mRNA expression” value with hOB SFRP mRNA [1] (hOB-03-C5 cells, 100 nM, 24 hr) was “completely up-regulated”; in the test on hOB SFRP mRNA [1] (maturation-stage hOB-03-CE6 cells), “up-regulation”. The pEC50 with hOB SFRP mRNA [1] (hOB-03-C5 cells, increasing concentrations, 24 hr, read-out: EC50 for up-regulation of hOB SFRP mRNA expression) is approximately 8.10. Also, the “EC50 for up-regulation of hOB SFRP mRNA, times higher than in the hOB-03-C5 cells” value in the test with hOB SFRP mRNA [1] (hOB-03-CE6 cells) is “about 10 times”. Also, the “up-regulation of steady-state SFRP mRNA levels” value in the test with hOB SFRP mRNA [1] (normal hOB cells (explant cultures), 100 nM, 24 hr, 37° C.) was approximately 1.3 fold. The “up-regulation of SFRP message” value in the test on hOB SFRP mRNA [2] (normal hOB cells (explant cultures), 100 nM) is given as 10 fold.
One may read the pIC50 as the negative decadic logarithm of the IC50, by convention in mol/L. For the compound “human transforming growth factor-β1 [TGF-β1]”, the “regulation of SFRP mRNA” value in the test with hOB SFRP mRNA [1] (24 hr, 37° C.) was “not regulated”. The “suppression of hOB SFRP mRNA levels” value with hOB SFRP mRNA [1] (hOB-01-C1 cells, 100 pM, 24 hr) is 80%. The pIC50 in the test with hOB SFRP mRNA [2] (hOB-01-C1 cells, read-out: IC50 for suppression of SFRP gene expression) is approximately 11.40. Besides, the “suppression of SFRP gene expression” value with hOB SFRP mRNA [2] (hOB-01-C1 cells, increasing concentrations) is listed as “approximately 70%”.

(Values after patent publication US7098372B1, “Pharmaceutical compositions and methods of using secreted frizzled related protein” (Wyeth, priority 1999, dated 2006).)
